Measurements reported in ChEMBL document CHEMBL3098076, “Triazino indole-quinoline hybrid: a novel approach to antileishmanial agents” (Bioorg Med Chem Lett, 2014).

Tests used:
[1] = test system: Vero; experiment: (§1) Selectivity index, ratio of CC50 for African green monkey Vero cells to IC50 for amastigote stage of Leishmania donovani MHOM/IN/80/Dd8; assay type: functional
[2] = as §1; assay type: functional
[3] = (§2) Cytotoxicity against African green monkey Vero cells after 72 hrs by MTT assay; assay type: cell-based; settings: chlorocebus sabaeus, Vero cells
[4] = test system: Leishmania donovani; experiment: Antileishmanial activity against extracellular promastigote stage of Leishmania donovani; assay type: functional, organism-based
[5] = test system: Leishmania donovani; experiment: Antileishmanial activity against intracellular amastigote stage of Leishmania donovani MHOM/IN/80/Dd8 expressing luciferase firefly reporter gene infected in mouse J774A1 cells after 72 hrs by luminescence assay; assay type: functional, organism-based, J774.A1
[6] = test system: Vero; experiment: as §2; assay type: cell-based; settings: chlorocebus sabaeus, vero, 72 h
[7] = Leishmania donovani, MHOM/IN/80/Dd8, J774.A1, 72 h, read-out: IC50

Row | Molecule | IC50 ([4]; Leishmania donovani) | IC50 [5, 7] | Ratio CC50/IC50 [2] | CC50 at 72 h [3] | IC50 ([5]; j774.a1) | further results
1 | SODIUM ANTIMONY GLUCONATE [listing 1 of 2 here] |  |  |  |  |  | Ratio CC50/IC50 [1]: > 7
2 | CC(C)Cn1c2ccccc2c2nnc(SCCNc3ccnc4cc(Cl)ccc34)nc21 | 17 µM | 5.69 µM | 5 | 28.6 µM |  | 
3 | Clc1ccc2c(NCCCSc3nnc4c(n3)[nH]c3ccccc34)ccnc2c1 | 18.9 µM |  |  |  | ND(toxic) | 
4 | CCCn1c2ccccc2c2nnc(SCCNc3ccnc4cc(Cl)ccc34)nc21 | > 40 µM | 14.7 µM | 3 | 41.7 µM |  | 
5 | Cn1c2ccccc2c2nnc(SCCCCCNc3ccnc4cc(Cl)ccc34)nc21 | 15 µM |  |  |  | ND(toxic) | 
6 | SODIUM ANTIMONY GLUCONATE [listing 2 of 2 here] |  |  |  |  |  | CC50 [6]: > 400 µM; IC50 [4]: > 200 µM; IC50 ([5]; j774.a1, read-out: IC50): 54.6 µM
7 | CCCCCCCCCCCCCCCCOP(=O)([O-])OCC[N+](C)(C)C [MILTEFOSINE] | 1.1 µM |  | 7 |  |  | 
8 | Cn1c2ccc(Br)cc2c2nnc(SCCNc3ccnc4cc(Cl)ccc34)nc21 | > 40 µM | > 40 µM |  |  |  | 
9 | CC(C)n1c2ccccc2c2nnc(SCCNc3ccnc4cc(Cl)ccc34)nc21 | 21.9 µM | 2.88 µM | 7 | 19.4 µM |  | 
10 | CCCCn1c2ccccc2c2nnc(SCCNc3ccnc4cc(Cl)ccc34)nc21 | > 40 µM | 29.5 µM |  |  |  | 
11 | CCn1c2ccc(Br)cc2c2nnc(SCCNc3ccnc4cc(Cl)ccc34)nc21 | > 40 µM | > 40 µM |  |  |  | 
12 | Cn1c2ccccc2c2nnc(SCCCNc3ccnc4cc(Cl)ccc34)nc21 | 24.1 µM |  |  |  | ND(toxic) | 

Further molecules by falling IC50 ([4]; Leishmania donovani), results first:

Row | IC50 ([4]; Leishmania donovani) | IC50 [5, 7] | Molecule | Ratio CC50/IC50 [2] | CC50 at 72 h [3] | IC50 ([5]; j774.a1) | further results
13 | 9.1 µM | 7.1 µM | CCn1c2ccccc2c2nnc(SCCNc3ccnc4cc(Cl)ccc34)nc21 | 7 | 61.5 µM |  | 
14 | 8.95 µM |  | CCn1c2ccccc2c2nnc(SCCCCCNc3ccnc4cc(Cl)ccc34)nc21 |  |  | ND(toxic) | 
15 | 8.75 µM | 1.11 µM | Clc1ccc2c(NCCSc3nnc4c(n3)[nH]c3ccccc34)ccnc2c1 | 67 | 74.3 µM |  | 
16 | 8.08 µM |  | Clc1ccc2c(NCCSc3nnc4c5ccccc5n(Cc5ccccc5)c4n3)ccnc2c1 |  |  | ND(toxic) | 
17 | 7.9 µM | 10.1 µM | C=CCn1c2ccccc2c2nnc(SCCNc3ccnc4cc(Cl)ccc34)nc21 | 1 | 10.5 µM |  | 
18 | 7.09 µM |  | Clc1ccc2c(NCCSc3nnc4c(n3)[nH]c3ccc(Br)cc34)ccnc2c1 |  |  | ND(toxic) | 
19 | 6.46 µM | 6.46 µM | Cn1c2nc(SCCNc3ccnc4cc(Cl)ccc34)nnc2c2cccc(C(F)(F)F)c21 | 6 | 39.3 µM |  | 
20 | 6.27 µM | 0.36 µM | Cn1c2ccccc2c2nnc(SCCNc3ccnc4cc(Cl)ccc34)nc21 | >1111 | > 400 µM |  | 
21 | 2.66 µM |  | CCn1c2ccccc2c2nnc(SCCCNc3ccnc4cc(Cl)ccc34)nc21 |  |  | ND(toxic) | 
22 | 1.95 µM |  | Cn1c2ccc([N+](=O)[O-])cc2c2nnc(SCCNc3ccnc4cc(Cl)ccc34)nc21 |  |  | ND(toxic) | 
